Patent publication US5491217A, “LHRH antagonists having modified aminoacyl residues at positions 5 and 6” (TAP Holding Inc., priority 1994, dated 1996)
Where a SMILES comes first, the peptide text is derived from it. [ ]: non-standard residue; d: D form. NMePhe(4-NO2) = CN[C@@H](Cc1ccc([N+](=O)[O-])cc1)C(=O)O; dPhe(4-Cl) = N[C@H](Cc1ccc(Cl)cc1)C(=O)O; d2Nal = N[C@H](Cc1ccc2ccccc2c1)C(=O)O; dCit = NC(=O)NCCC[C@@H](N)C(=O)O; d3Pal = N[C@H](Cc1cccnc1)C(=O)O

Target: T1, LHRH (Rattus norvegicus, UniProt P30969)
T1 construct: endogenous in cells
T1 sequence (P30969 1-327): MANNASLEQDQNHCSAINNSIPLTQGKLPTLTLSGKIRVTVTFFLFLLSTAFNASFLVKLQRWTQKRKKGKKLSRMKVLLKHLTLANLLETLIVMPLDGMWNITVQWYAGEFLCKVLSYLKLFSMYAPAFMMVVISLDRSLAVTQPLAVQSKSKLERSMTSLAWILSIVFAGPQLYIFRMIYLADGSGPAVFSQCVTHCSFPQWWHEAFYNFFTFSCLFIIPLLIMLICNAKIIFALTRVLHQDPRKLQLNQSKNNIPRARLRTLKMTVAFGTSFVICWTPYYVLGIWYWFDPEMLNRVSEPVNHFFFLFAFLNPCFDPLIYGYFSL
Test: in vitro test for LHRH antagonist potency (pA2) against the agonist leuprolide
Type: cell-based
Settings: negative logarithm of the concentration of antagonist which shifts the response curve produced by the agonist leuprolide to two-fold higher concentration
Experimental: Representative compounds of the present invention were evaluated in in vitro tests for receptor binding (pKI) and for LHRH antagonist potency (pA2). The tests employed the methods detailed in F. Haviv, et al. J. Med. Chem, 32: 2340-2344 (1989). The receptor binding affinities (pKI) are the negative logarithms of the equilibrium dissociation constants, and the values of pA2 are the negative logarithms of the concentration of antagonist which shift the response curve produced by the agonist leuprolide to two-fold higher concentration. (Leuprolide is the LHRH agonist having the structure 5-ox--Pro^1 --His^2 --Trp^3 --Ser^4 -- Tyr^5 --D--Leu^6 --Leu^7 --Arg^8 --Pro^9 --NHEt and is disclosed and claimed in U.S. Pat. No. 4,005,063.) Typically pA2 values of 9.5 or greater are indicative of good LHRH antagonist potency.

pA2 | Molecule | Kb [pM]
 | CC(=O)N[C@H](Cc1ccc2ccccc2c1)C(=O)N[C@H](Cc1ccc(Cl)cc1)C(=O)N[C@H](Cc1cccnc1)C(=O)N[C@@H](CO)C(=O)N(C)[C@@H](Cc1ccc([N+](=O)[O-])cc1)C(=O)N[C@H](CCCNC(N)=O)C(=O)N[C@@H](CC(C)C)C(=O)N[C@@H](CCCNC(=N)N)C(=O)N1CCC[C@H]1C(=O)N[C@H](C)C(N)=O [Example 1, NAc--D-2Nal--D-4ClPhe--D-3Pal--Ser--NMe(4-NO2)Phe--D--Cit--Leu--Arg--Pro--DAlaNH2] (Ac-[d2Nal][dPhe(4-Cl)][d3Pal]S[NMePhe(4-NO2)][dCit]LRP[dA]-NH2) | 5.5
11.22 | NAc--D2Nal--D4ClPhe--D3Pal--Ser--NMe(4-Atza)Phe--DLyS(Nic)--Leu--Lys(Isp)-- ProDAlaNH2 [Example 3] | 
10.68 | NAc--D-2Nal--D-4ClPhe--D-3Pal--Ser--NMe--(4-Atza)Phe--D--(4-Atza)Phe--Leu --Lys(Isp)--Pro--D--AlaNH2 [Example 5] | 
10.35 | NAc--D-2Nal--D-4ClPhe--D-3Pal--Ser--NMeTyr--D-(4-Atza)Phe--Leu--Lys(Isp)--Pro--D--AlaNH2 [Example 4] | 
